Data on ten molecules can be found in ChEMBL document CHEMBL4152317, “Engineering potent mesotrypsin inhibitors based on the plant-derived cyclic peptide, sunflower trypsin inhibitor-1” (Eur J Med Chem, 2018).

Molecules are shown by their SMILES. Where a SMILES comes first, the peptide text is derived from it. Bridges are numbered along the chain shown (N, C = ends). [ ]: non-standard residue; d: D form. Bip = N[C@@H](Cc1ccc(-c2ccccc2)cc1)C(=O)O; 2Nal = N[C@@H](Cc1ccc2ccccc2c1)C(=O)O

One assay deals with T1, Trypsin-3 (Homo sapiens, UniProt P35030).
T1 sequence (P35030 whole entry): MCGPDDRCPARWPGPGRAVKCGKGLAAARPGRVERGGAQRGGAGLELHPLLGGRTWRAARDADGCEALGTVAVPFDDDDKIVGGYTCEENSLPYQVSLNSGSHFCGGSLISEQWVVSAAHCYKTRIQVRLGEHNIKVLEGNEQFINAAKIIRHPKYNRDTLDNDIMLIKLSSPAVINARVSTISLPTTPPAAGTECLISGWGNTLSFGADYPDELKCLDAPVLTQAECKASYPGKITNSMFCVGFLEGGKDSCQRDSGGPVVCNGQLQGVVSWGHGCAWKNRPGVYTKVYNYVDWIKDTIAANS
The assay can be described thus: Competitive inhibition of recombinant human mesotrypsin using Z-GPR-MCA as substrate measured every 30 secs for 10 mins.

Another assay addresses T2, Trypsin-3 (Homo sapiens) (UniProt P35030).
T2 sequence (whole entry): T1 sequence (P35030 whole entry)
The assay can be described thus: Potency index, ratio of SFTI-1 Ki to test compound Ki for recombinant human mesotrypsin.

In assay [1] the target is T3, Serine protease 1 (Homo sapiens, UniProt P07477). The assay can be described thus: Inhibition of human cationic trypsin using Boc-VPR-MCA as substrate measured every 30 secs for 10 mins.
The target in assay [2] is T3, Serine protease 1. The assay can be described thus: Potency index, ratio of SFTI-1 Ki to test compound Ki for human cationic trypsin.
The target of assay [3] is T4, Serine protease 1 (Bos taurus, UniProt P00760).
T4 sequence (P00760 whole entry): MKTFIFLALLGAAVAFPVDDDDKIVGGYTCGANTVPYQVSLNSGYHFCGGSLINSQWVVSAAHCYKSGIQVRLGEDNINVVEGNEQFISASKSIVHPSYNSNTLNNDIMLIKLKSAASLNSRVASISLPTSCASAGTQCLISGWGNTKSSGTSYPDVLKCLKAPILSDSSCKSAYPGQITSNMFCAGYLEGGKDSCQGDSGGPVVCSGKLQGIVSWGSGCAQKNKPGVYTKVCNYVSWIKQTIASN
Kind of assay: Inhibition of bovine beta-trypsin using Boc-QAR-MCA as substrate measured every 30 secs for 10 mins.

The target in assay [4] is T5, Serine protease 1 (Bos taurus) (UniProt P00760).
T5 sequence (whole entry): T4 sequence (P00760 whole entry)
The assay can be described thus: Potency index, ratio of SFTI-1 Ki to test compound Ki for bovine beta-trypsin.

Assay [5] deals with T6, Suppressor of tumorigenicity 14 protein (Homo sapiens) (UniProt Q9Y5Y6).
T6 sequence (whole entry): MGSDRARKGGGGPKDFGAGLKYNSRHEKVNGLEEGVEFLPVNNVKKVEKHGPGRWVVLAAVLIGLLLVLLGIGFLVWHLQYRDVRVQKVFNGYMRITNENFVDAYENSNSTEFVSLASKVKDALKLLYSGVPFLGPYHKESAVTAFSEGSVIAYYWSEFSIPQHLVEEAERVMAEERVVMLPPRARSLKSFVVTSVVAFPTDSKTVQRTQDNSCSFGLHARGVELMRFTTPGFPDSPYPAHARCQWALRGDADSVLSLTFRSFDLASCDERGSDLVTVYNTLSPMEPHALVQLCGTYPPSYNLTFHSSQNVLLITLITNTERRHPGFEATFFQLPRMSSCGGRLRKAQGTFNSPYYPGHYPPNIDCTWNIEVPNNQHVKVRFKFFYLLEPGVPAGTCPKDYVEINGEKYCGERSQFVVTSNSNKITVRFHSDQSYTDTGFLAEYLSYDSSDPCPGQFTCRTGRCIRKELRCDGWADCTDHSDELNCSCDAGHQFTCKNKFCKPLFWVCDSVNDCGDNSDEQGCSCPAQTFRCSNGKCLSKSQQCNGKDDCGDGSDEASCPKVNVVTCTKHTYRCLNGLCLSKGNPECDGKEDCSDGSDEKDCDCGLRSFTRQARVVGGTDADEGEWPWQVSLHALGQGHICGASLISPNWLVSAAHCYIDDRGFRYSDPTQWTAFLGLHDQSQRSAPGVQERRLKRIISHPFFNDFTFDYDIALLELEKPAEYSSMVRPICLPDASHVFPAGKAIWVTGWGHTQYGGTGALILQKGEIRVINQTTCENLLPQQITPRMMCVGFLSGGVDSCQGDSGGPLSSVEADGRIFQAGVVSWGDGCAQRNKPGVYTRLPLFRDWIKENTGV
Kind of assay: Inhibition of recombinant human matriptase at 50 uM using Boc-QAR-MCA as substrate measured every 30 secs for 10 mins relative to control.

The target of assay [6] is T7, Prothrombin (Homo sapiens, UniProt P00734). The assay can be described thus: Inhibition of human alpha thrombin at 50 uM using Boc-VPR-MCA as substrate measured every 30 secs for 10 mins relative to control.
The target in assay [7] is Chymotrypsinogen A (Bos taurus) (UniProt P00766). The assay can be described thus: Inhibition of bovine alpha-chymotrypsin at 50 uM using Suc-AAPF-MCA as substrate measured every 30 secs for 10 mins relative to control.
Assay [8] addresses T8, Suppressor of tumorigenicity 14 protein (Homo sapiens, UniProt Q9Y5Y6).
T8 sequence (Q9Y5Y6 whole entry): T6 sequence (whole entry)
Kind of assay: Inhibition of recombinant human matriptase using Boc-QAR-MCA as substrate measured every 30 secs for 10 mins.

For assay [9], the target named is T7, Prothrombin. Kind of assay: Inhibition of human alpha thrombin using Boc-VPR-MCA as substrate measured every 30 secs for 10 mins.
The next assay deals with Chymotrypsinogen A (Bos taurus, UniProt P00766). The assay can be described thus: Inhibition of bovine alpha-chymotrypsin using Suc-AAPF-MCA as substrate measured every 30 secs for 10 mins.

T3 sequence (P07477 whole entry): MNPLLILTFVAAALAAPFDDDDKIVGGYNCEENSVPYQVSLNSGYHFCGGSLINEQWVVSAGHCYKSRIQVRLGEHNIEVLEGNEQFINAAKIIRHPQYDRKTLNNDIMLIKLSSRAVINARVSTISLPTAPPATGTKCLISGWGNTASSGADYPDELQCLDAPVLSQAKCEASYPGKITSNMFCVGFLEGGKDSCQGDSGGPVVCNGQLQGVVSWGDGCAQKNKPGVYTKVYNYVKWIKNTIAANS

`CC[C@H](C)[C@@H]1NC(=O)[C@@H]2CCCN2C(=O)[C@@H]2CCCN2C(=O)[C@H](Cc2ccc3ccccc3c2)NC(=O)[C@H](CO)NC(=O)[C@H](CCCNC(=N)N)NC(=O)[C@H]([C@@H](C)O)NC(=O)[C@@H]2CSSC[C@H](NC1=O)C(=O)N[C@@H](Cc1ccccc1)C(=O)N1CCC[C@H]1C(=O)N[C@@H](CC(=O)O)C(=O)NCC(=O)N[C@@H](CCCNC(=N)N)C(=O)N2` (cyclo([2Nal]PPICFPDGRCTRS); disulfide 5-11): the figures for the inhibition constant Ki at Trypsin-3, at Serine protease 1 [1] and on Serine protease 1 [3] were 38 nM, 2.6 nM and 0.23 nM, respectively. The figures for the Ratio Ki (on Trypsin-3 (Homo sapiens); on Serine protease 1 [2]; in [4]) were 131, 87 and 29, respectively.
With `CC[C@H](C)[C@@H]1NC(=O)[C@@H]2CCCN2C(=O)[C@@H]2CCCN2C(=O)[C@H](CO)NC(=O)[C@H](CO)NC(=O)[C@H](CCCCN)NC(=O)[C@H]([C@@H](C)O)NC(=O)[C@@H]2CSSC[C@H](NC1=O)C(=O)N[C@@H](Cc1ccccc1)C(=O)N1CCC[C@H]1C(=O)N[C@@H](CC(=O)O)C(=O)NCC(=O)N[C@@H](CCCNC(=N)N)C(=O)N2` (cyclo(CFPDGRCTKSSPPI); disulfide 1-7), the inhibition constant (Ki) at Trypsin-3 was found to be 335 nM. On Trypsin-3 (Homo sapiens), the Ratio Ki stood at 15.
`CC[C@H](C)[C@@H]1NC(=O)[C@@H]2CCCN2C(=O)[C@@H]2CCCN2C(=O)CNC(=O)[C@H](CO)NC(=O)[C@H](CCCCN)NC(=O)[C@H]([C@@H](C)O)NC(=O)[C@@H]2CSSC[C@H](NC1=O)C(=O)N[C@@H](Cc1ccccc1)C(=O)N1CCC[C@H]1C(=O)N[C@@H](CC(=O)O)C(=O)NCC(=O)N[C@@H](CCCNC(=N)N)C(=O)N2` (cyclo(CFPDGRCTKSGPPI); disulfide 1-7): the inhibition constant (Ki) at Trypsin-3 was found to be 134 nM; at Serine protease 1 [1] it was 49 nM; at Serine protease 1 [3], 81 nM. In addition, the Ratio Ki on Trypsin-3 (Homo sapiens) came out at 37; on Serine protease 1 [2], 1630; in assay [4] it was 10100. Besides, the inhibition (in assay [5]; at Prothrombin [6]; in assay [7]) was under 50% each time. The 50% inhibitory concentration (IC50) (in assay [8]; against Prothrombin [9]; against Chymotrypsinogen A) was over 50000 nM in each case.
Regarding `CC[C@H](C)[C@@H]1NC(=O)[C@@H]2CCCN2C(=O)[C@@H]2CCCN2C(=O)[C@H](Cc2ccc3ccccc3c2)NC(=O)[C@H](CO)NC(=O)[C@H](CCCCN)NC(=O)[C@H]([C@@H](C)O)NC(=O)[C@@H]2CSSC[C@H](NC1=O)C(=O)N[C@@H](Cc1ccccc1)C(=O)N1CCC[C@H]1C(=O)N[C@@H](CC(=O)O)C(=O)NCC(=O)N[C@@H](CCCNC(=N)N)C(=O)N2` (cyclo([2Nal]PPICFPDGRCTKS); disulfide 5-11), the inhibition constant (Ki) on Trypsin-3 was found to be 26 nM; on Serine protease 1 [1] it was 0.87 nM; on Serine protease 1 [3] it was 0.046 nM. Further, the figures for the Ratio Ki (on Trypsin-3 (Homo sapiens); on Serine protease 1 [2]; in [4]) were 191, 29 and 6, respectively.
As for `CC[C@H](C)[C@@H]1NC(=O)[C@@H]2CCCN2C(=O)[C@@H]2CCCN2C(=O)[C@H](Cc2ccccc2)NC(=O)[C@H](CO)NC(=O)[C@H](CCCCN)NC(=O)[C@H]([C@@H](C)O)NC(=O)[C@@H]2CSSC[C@H](NC1=O)C(=O)N[C@@H](Cc1ccccc1)C(=O)N1CCC[C@H]1C(=O)N[C@@H](CC(=O)O)C(=O)NCC(=O)N[C@@H](CCCNC(=N)N)C(=O)N2` (cyclo(CFPDGRCTKSFPPI); disulfide 1-7), the inhibition constant (Ki) on Trypsin-3 was 45 nM. In addition, the Ratio Ki on Trypsin-3 (Homo sapiens) was 110.
In the same order, the values of `CC[C@H](C)[C@@H]1NC(=O)[C@@H]2CCCN2C(=O)[C@@H]2CCCN2C(=O)[C@H](CC(=O)O)NC(=O)[C@H](CO)NC(=O)[C@H](CCCCN)NC(=O)[C@H]([C@@H](C)O)NC(=O)[C@@H]2CSSC[C@H](NC1=O)C(=O)N[C@@H](Cc1ccccc1)C(=O)N1CCC[C@H]1C(=O)N[C@@H](CC(=O)O)C(=O)NCC(=O)N[C@@H](CCCNC(=N)N)C(=O)N2` (cyclo(CFPDGRCTKSDPPI); disulfide 1-7) are 402 nM and 12.
`CC[C@H](C)[C@@H]1NC(=O)[C@@H]2CCCN2C(=O)[C@@H]2CCCN2C(=O)[C@H]([C@@H](C)CC)NC(=O)[C@H](CO)NC(=O)[C@H](CCCCN)NC(=O)[C@H]([C@@H](C)O)NC(=O)[C@@H]2CSSC[C@H](NC1=O)C(=O)N[C@@H](Cc1ccccc1)C(=O)N1CCC[C@H]1C(=O)N[C@@H](CC(=O)O)C(=O)NCC(=O)N[C@@H](CCCNC(=N)N)C(=O)N2` yielded a Ki at Serine protease 1 [1] of 0.03 nM.
Turning to `CC[C@H](C)[C@@H]1NC(=O)[C@@H]2CCCN2C(=O)[C@@H]2CCCN2C(=O)[C@H](Cc2ccc(-c3ccccc3)cc2)NC(=O)[C@H](CO)NC(=O)[C@H](CCCNC(=N)N)NC(=O)[C@H]([C@@H](C)O)NC(=O)[C@@H]2CSSC[C@H](NC1=O)C(=O)N[C@@H](Cc1ccccc1)C(=O)N1CCC[C@H]1C(=O)N[C@@H](CC(=O)O)C(=O)NCC(=O)N[C@@H](CCCNC(=N)N)C(=O)N2` (cyclo([Bip]PPICFPDGRCTRS); disulfide 5-11), the results for the inhibitory constant (Ki) on Trypsin-3, on Serine protease 1 [1] and on Serine protease 1 [3] were 28 nM, 1.9 nM and 0.17 nM, respectively. Further, the Ratio Ki at Trypsin-3 (Homo sapiens) came to 177; at Serine protease 1 [2], 63; in [4] it was 21.
For `CC[C@H](C)[C@@H]1NC(=O)[C@@H]2CCCN2C(=O)[C@@H]2CCCN2C(=O)CNC(=O)[C@H](CO)NC(=O)[C@H](CCCNC(=N)N)NC(=O)[C@H]([C@@H](C)O)NC(=O)[C@@H]2CSSC[C@H](NC1=O)C(=O)N[C@@H](Cc1ccccc1)C(=O)N1CCC[C@H]1C(=O)N[C@@H](CC(=O)O)C(=O)NCC(=O)N[C@@H](CCCNC(=N)N)C(=O)N2` (cyclo(CFPDGRCTRSGPPI); disulfide 1-7), the results for the inhibition constant (Ki) on Trypsin-3, on Serine protease 1 [1] and at Serine protease 1 [3] were 369 nM, 100 nM and 196 nM, respectively. For the same molecule, the Ratio Ki is 13 at Trypsin-3 (Homo sapiens), 3330 on Serine protease 1 [2] and 24500 in assay [4].
As to `CC[C@H](C)[C@@H]1NC(=O)[C@@H]2CCCN2C(=O)[C@@H]2CCCN2C(=O)[C@H](Cc2ccc(-c3ccccc3)cc2)NC(=O)[C@H](CO)NC(=O)[C@H](CCCCN)NC(=O)[C@H]([C@@H](C)O)NC(=O)[C@@H]2CSSC[C@H](NC1=O)C(=O)N[C@@H](Cc1ccccc1)C(=O)N1CCC[C@H]1C(=O)N[C@@H](CC(=O)O)C(=O)NCC(=O)N[C@@H](CCCNC(=N)N)C(=O)N2` (cyclo([Bip]PPICFPDGRCTKS); disulfide 5-11), the figures for the Ki at Trypsin-3, on Serine protease 1 [1] and at Serine protease 1 [3] were 35 nM, 0.76 nM and 0.062 nM, respectively. For the same molecule, the values for the Ratio Ki (on Trypsin-3 (Homo sapiens); at Serine protease 1 [2]; in assay [4]) were 142, 25 and 8, respectively.
